The text below walks through data of patent US20220202012A1, “SPROUT INHIBITOR FOR POTATO AND METHOD OF USE THEREOF” (UPL Limited, priority 2019, published 2022).

Several values for one entry are separate records, joined by “and”; a condition that tells them apart may be missing. Equal entries are not always repeated.

The test system of assay [1] is storage potatoes. The assay is described as follows: Field trial: sprout suppression in storage potatoes, composition applied on a conveyor belt. It is filed as in vivo, Solanum tuberosum. The protocol:
The efficacy of sprout inhibitor for sprout suppression in storage potatoes was evaluated by applying the composition of present invention on potatoes on a conveyor belt. The treatment application for trial is at crop storage majority treatment 1) Beginning of sprouting: sprouts visible (<1 mm) and, treatment 2) at end of dormancy (sprouts 2-3 mm). After completion of the test, the potatoes were evaluated on sprouting reduction efficiency. No phytotoxicity was observed.

In assay [2] the test system is potatoes of the variety Fontane and Innovator. In words: Field trials in Belgium 2018/2019: anti-sprout spray treatment of stored potatoes. Further details: Tuber sprate 126 da-a / Tuber sprate 182 da-a: scale not given here; Sprout weight after 55 DA / Sprout LENMAX after 55 DA / Sprout weight 55 DA / Sprout weight 116 DA / Sprout Lenmax 55 DA / Sprout Lenmax 116 DA / Sprout lenmax 126 DA-A / Sprout lenmax 182 DA-A / Sprout weight 126 DA / Sprout weight 182 DA: unit not given here. The following applies: for Sprout LENMAX after 55 DA: Length maximal; for Sprout Lenmax 55 DA / Sprout weight 55 DA / Tuber sprout % 55 DA / Sprout Lenmax 116 DA / Sprout weight 116 DA / Tuber sprout % 116 DA: Table 4; for Sprout lenmax 126 DA-A / Sprout weight 126 DA / Tuber sprouted (%) 126 DA / Tuber sprate 126 da-a / Sprout lenmax 182 DA-A / Sprout weight 182 DA / Tuber sprouted % 182 DA / Tuber sprate 182 da-a: Table 5. In kind it is in vivo, Solanum tuberosum. How it is done:
Field trials were conducted in Belgium, during 2018 and 2019, in the potato crop. The potatoes of the variety Fontane and Innovator was used for anti-sprout treatment (Variety for processing) came up directly from the field (Harvested on Oct. 5, 2018 and Sep. 19, 2018).
The trial was set up in randomized complete block with single control randomized in each block under commercial storage practice. Potatoes treated 3 days after lifting and skin maturity was good. For application of formulation (carrier: 200 ml water for one treatment) container with rack and spray stick was used.
The first application (A) was carried out Potatoes treated 3 days after lifting. The following applications were carried out at four weeks' interval for each treatment.
(A): right after harvest, before putting into storage.
Storage conditions: The trials are stored in shed at temperature 5-18° C. and all plots of a trial should be stored in the same place.

[3] abbreviates: Treatment (1): Beginning of sprouting, rate 60 ml/1000 kg.
Where [4] appears, read: Treatment (2): At end of dormancy, rate not given.
Where [5] appears, read: Treatment (1): Beginning of sprouting, rate 400 ml/1000 kg.
Setting [6] is: Treatment (1): Beginning of sprouting, rate 195 ml/1000 kg.
Where [7] appears, read: Treatment (1): Beginning of sprouting, rate 300 ml/1000 kg.

Consider `Cc1ccc(C)c2ccccc12` [1,4-Dimethylnaphthalene], for which, in assay [1] (setting [3]), the “Sprout No.” value is listed as 15.7 and the “Sprouted (%)” value is 42.80%. In assay [1] (setting [4]), the “Sprout Number” value is 34.3 and the “Sprouted (%)” value is recorded as 94.59%.
As for `O=C(O)COc1ccc(Cl)cc1Cl` [2,4-D], in assay [1] (setting [5]), the “Sprout No.” value was 12.3 and the “Sprouted (%)” value is on record as 31.14%. For the same compound, in assay [1] (setting [4]), the “Sprout Number” value is listed as 38.7 and the “Sprouted (%)” value came to 99.21%.
`CCCCCCC=CC(C)=O` [3-Decen-2-One]: in assay [1] (setting [6]), the “Sprout No.” value is 9.0 and the “Sprouted (%)” value is 24.75%. For the same compound, in assay [1] (setting [4]), the “Sprout Number” value amounted to 32.7 and the “Sprouted (%)” value amounted to 100.0%.
For the compound `C=C(C)C1CC=C(C)C(=O)C1` (stereo not drawn) [Carvone], in assay [1] (setting [7]), the “Sprout No.” value worked out at 12.3 and the “Sprouted (%)” value turned out to be 32.02%. Also, in assay [1] (setting [4]), the “Sprout Number” value is 34.0 and the “Sprouted (%)” value came out at 96.02%.
Take `COCc1cnc(C2=NC(C)(C(C)C)C(=O)N2)c(C(=O)O)c1` (stereo not drawn) [Imazamox, 5-(methoxymethyl)-2-(4-methyl-5-oxo-4-propan-2-yl-1H-imidazol-2-yl)pyridine-3-carboxylic acid]: in assay [2] (rate 12 g ai/1000 kg), the “Sprout weight after 55 DA” value turned out to be 6.89, the “Tuber SPROUTED (%) after 55 DA” value was 78.67% and the “Sprout LENMAX after 55 DA” value came out at 1.5. In assay [2] (rate 18 g ai/1000 kg), the “Sprout weight after 55 DA” value is 4.09, the “Tuber SPROUTED (%) after 55 DA” value was 73.21% and the “Sprout LENMAX after 55 DA” value was 1.7. Further, in assay [2] (rate 24 g ai/1000 kg), the “Sprout weight after 55 DA” value stood at 4.2, the “Tuber SPROUTED (%) after 55 DA” value came to 75.26% and the “Sprout LENMAX after 55 DA” value was 1.2. In assay [2] (rate 30 g ai/1000 kg), the “Sprout weight after 55 DA” value was 4.13, the “Tuber SPROUTED (%) after 55 DA” value is listed as 71.68% and the “Sprout LENMAX after 55 DA” value worked out at 1.7. Moreover, in assay [2] (rate 100 ml/1000 kg), the “Sprout Lenmax 55 DA” value came out at 1.5, the “Sprout weight 55 DA” value was determined as 6.89, the “Tuber sprout % 55 DA” value worked out at 78.67% and the “Sprout Lenmax 116 DA” value was determined as 3.3. In addition, in assay [2] (rate 100 ml/1000 kg), the “Sprout weight 116 DA” value is 12.31; the “Tuber sprout % 116 DA” value is listed as 85.86%; the “Sprout lenmax 126 DA-A” value is 2.8 and 5.2; the “Tuber sprate 126 da-a” value was 9.5 and 8.83. Further, in assay [2] (rate 100 ml/1000 kg), the “Tuber sprouted % 182 DA” value was 83.33% and 86.19%; the “Tuber sprate 182 da-a” value is 9.67 and 8.83. For the same compound, in assay [2] (rate 150 ml/1000 kg), the “Sprout Lenmax 55 DA” value is reported as 1.7, the “Sprout weight 55 DA” value amounted to 4.09, the “Tuber sprout % 55 DA” value was found to be 73.21% and the “Sprout Lenmax 116 DA” value amounted to 2.8. In addition, in assay [2] (rate 150 ml/1000 kg), the “Sprout weight 116 DA” value stood at 7.92; the “Tuber sprout % 116 DA” value was 79.15%; the “Sprout lenmax 126 DA-A” value is 1.7; the “Sprout weight 126 DA” value is 2.23 and 1.83. In addition, in assay [2] (rate 150 ml/1000 kg), the “Tuber sprouted (%) 126 DA” value is 81.43% and 72.58%; the “Tuber sprate 126 da-a” value was 9.5 and 9.58; the “Sprout lenmax 182 DA-A” value is 1 and 0.7; the “Sprout weight 182 DA” value was 3.77 and 3.13. For the same compound, in assay [2] (rate 150 ml/1000 kg), the “Tuber sprouted % 182 DA” value is 73.1% and 75.45%; the “Tuber sprate 182 da-a” value came to 9.75. In assay [2] (rate 200 ml/1000 kg), the “Sprout Lenmax 55 DA” value is 1.2, the “Sprout weight 55 DA” value is listed as 4.2, the “Tuber sprout % 55 DA” value turned out to be 75.26% and the “Sprout Lenmax 116 DA” value came out at 2. In addition, in assay [2] (rate 200 ml/1000 kg), the “Sprout weight 116 DA” value stood at 7.07; the “Tuber sprout % 116 DA” value came to 81.59%; the “Sprout lenmax 126 DA-A” value is 2.2 and 2.1; the “Sprout weight 126 DA” value was 1.93 and 1.75. In assay [2] (rate 200 ml/1000 kg), the “Tuber sprouted (%) 126 DA” value is 73.58% and 75.44%; the “Tuber sprate 126 da-a” value is 9.67 and 9.75; the “Sprout lenmax 182 DA-A” value was 1.7 and 1; the “Sprout weight 182 DA” value is 5.77 and 3.3. Further, in assay [2] (rate 200 ml/1000 kg), the “Tuber sprouted % 182 DA” value is 77.93% and 65.99%; the “Tuber sprate 182 da-a” value is 9.58 and 9.67. Further, in assay [2] (rate 250 ml/1000 kg), the “Sprout Lenmax 55 DA” value worked out at 1.7, the “Sprout weight 55 DA” value worked out at 4.13, the “Tuber sprout % 55 DA” value worked out at 71.68% and the “Sprout Lenmax 116 DA” value was found to be 1.3. Also, in assay [2] (rate 250 ml/1000 kg), the “Sprout weight 116 DA” value worked out at 4.92, the “Tuber sprout % 116 DA” value is listed as 71.93%, the “Sprout lenmax 126 DA-A” value came out at 0.9 and the “Sprout weight 126 DA” value was 1.65. In assay [2] (rate 250 ml/1000 kg), the “Tuber sprouted (%) 126 DA” value was found to be 75.06%, the “Tuber sprate 126 da-a” value is recorded as 9.75, the “Sprout lenmax 182 DA-A” value is recorded as 1.2 and the “Sprout weight 182 DA” value was determined as 3.53. Also, in assay [2] (rate 250 ml/1000 kg), the “Tuber sprouted % 182 DA” value came to 74.98% and the “Tuber sprate 182 da-a” value was determined as 9.67. For the same compound, in assay [2] (rate 50 ml/1000 kg), the “Sprout lenmax 126 DA-A” value was found to be 3.7, the “Sprout weight 126 DA” value is 6.54, the “Tuber sprouted (%) 126 DA” value is 88.47% and the “Tuber sprate 126 da-a” value is 8.83. In assay [2] (rate 50 ml/1000 kg), the “Sprout lenmax 182 DA-A” value was 4.2, the “Sprout weight 182 DA” value came to 23, the “Tuber sprouted % 182 DA” value was 88.1% and the “Tuber sprate 182 da-a” value worked out at 8.67. Moreover, the “sprout control over time (in words)” value in assay [2] (as compared to other treatments such as maleic hydrazide, CIPC) was “effective sprout control over an extended period of time”. Further, in assay [2] (comment on Table 3), the “inhibition of sprouts (in words)” value is reported as “effective for inhibition of sprouts”. The “sprout weight (in words)” value in assay [2] (comment on Table 3, as compared to maleic hydrazide) is “an advantage was found”. The tubers germinated in assay [2] (comment on Table 5, dose rate 250 ml/1000 kg) was found to be 74%. In assay [1] (setting [5]), the “Sprout No.” value came to 9.7 and the “Sprouted (%)” value turned out to be 24.77%. Also, in assay [1] (setting [4]), the “Sprout Number” value was determined as 16.7 and the “Sprouted (%)” value worked out at 42.54%.
